# Tested on: normal human lung fibroblasts
# Assay: Ribosomal profiling: translational efficiency in TGFβ-treated fibroblasts
# Type: cell-based
# In short: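 Genome-wide RPF and total RNA libraries (ARTseq, RNA-Seq) were made from lysates of cycloheximide-treated, PBS-washed cells. After trimming and human-genome mapping, per-gene coding-region counts were compared between RPF and RNA for translational efficiency. Genes scoring low in either fraction were dropped.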
substance,measurement,setting,value
TGFβ,change in translational profile of PPARG caused by TGFβ,"ENSG00000132170, Control vs. TGFβ",A (A = <−2.5)
same,Log2 TE KDM6B,"ENSG00000132510, 5 replicates",1.603
same,change in translational profile of KDM6B caused by TGFβ,"ENSG00000132510, Control vs. TGFβ",E (E = <1.5 to 2.5)
same,Log2 TE RARRES3,"ENSG00000133321, 5 replicates",−1.995
same,change in translational profile of RARRES3 caused by TGFβ,"ENSG00000133321, Control vs. TGFβ",B (B = <−1.5 to −2.5)
same,Log2 TE TMTC1,"ENSG00000133687, 5 replicates",−1.907
same,Log2 TE RPS15A,"ENSG00000134419, 5 replicates",2.195
same,Log2 TE SOX5,"ENSG00000134532, 5 replicates",−1.667
same,change in translational profile of BIVM caused by TGFβ,"ENSG00000134897, Control vs. TGFβ",B (B = <−1.5 to −2.5)
same,Log2 TE ATP5G2,"ENSG00000135390, 5 replicates",1.381
same,change in translational profile of ATP5G2 caused by TGFβ,"ENSG00000135390, Control vs. TGFβ",E (E = <1.5 to 2.5)
same,Log2 TE KRT7,"ENSG00000135480, 5 replicates",2
same,change in translational profile of KRT7 caused by TGFβ,"ENSG00000135480, Control vs. TGFβ",E (E = <1.5 to 2.5)
same,Log2 TE HNRNPA1,"ENSG00000135486, 5 replicates",1.086
same,change in translational profile of HNRNPA1 caused by TGFβ,"ENSG00000135486, Control vs. TGFβ",D (D = <1.0 to 1.5)
same,Log2 TE PCNXL2,"ENSG00000135749, 5 replicates",−1.261
same,Log2 TE PLXNC1,"ENSG00000136040, 5 replicates",−1.0996
same,Log2 TE IL6,"ENSG00000136244, 5 replicates",1.369
same,change in translational profile of IL6 caused by TGFβ,"ENSG00000136244, Control vs. TGFβ",E (E = <1.5 to 2.5)
same,Log2 TE RPL35,"ENSG00000136942, 5 replicates",1.28
same,change in translational profile of RPL35 caused by TGFβ,"ENSG00000136942, Control vs. TGFβ",E (E = <1.5 to 2.5)
same,change in translational profile of NOV caused by TGFβ,"ENSG00000136999, Control vs. TGFβ",C (C = <−1.0 to −1.5)
same,Log2 TE IL33,"ENSG00000137033, 5 replicates",−2.488
same,Log2 TE RPS6,"ENSG00000137154, 5 replicates",1.598
same,Log2 TE IER3,"ENSG00000137331, 5 replicates",1.702
same,change in translational profile of IER3 caused by TGFβ,"ENSG00000137331, Control vs. TGFβ",E (E = <1.5 to 2.5)
same,Log2 TE DDX60,"ENSG00000137628, 5 replicates",−1.211
same,change in translational profile of DDX60 caused by TGFβ,"ENSG00000137628, Control vs. TGFβ",C (C = <−1.0 to −1.5)
same,Log2 TE RPLP1,"ENSG00000137818, 5 replicates",1.461
same,change in translational profile of RPLP1 caused by TGFβ,"ENSG00000137818, Control vs. TGFβ",E (E = <1.5 to 2.5)
same,Log2 TE PAQR5,"ENSG00000137819, 5 replicates",−1.445
same,change in translational profile of PAQR5 caused by TGFβ,"ENSG00000137819, Control vs. TGFβ",B (B = <−1.5 to −2.5)
same,Log2 TE STAMBPL1,"ENSG00000138134, 5 replicates",−1.139
same,Log2 TE KIF20B,"ENSG00000138182, 5 replicates",−1.281
same,Log2 TE RPS24,"ENSG00000138326, 5 replicates",1.444
same,Log2 TE TET1,"ENSG00000138336, 5 replicates",1.853
same,Log2 TE AOX1,"ENSG00000138356, 5 replicates",−1.143
same,change in translational profile of AOX1 caused by TGFβ,"ENSG00000138356, Control vs. TGFβ",B (B = <−1.5 to −2.5)
same,Log2 TE NAB1,"ENSG00000138386, 5 replicates",−1.01
same,Log2 TE SLC40A1,"ENSG00000138449, 5 replicates",1.114
same,Log2 TE FGF5,"ENSG00000138675, 5 replicates",−1.163
same,change in translational profile of FGF5 caused by TGFβ,"ENSG00000138675, Control vs. TGFβ",B (B = <−1.5 to −2.5)
same,Log2 TE PDE5A,"ENSG00000138735, 5 replicates",−1.594
same,change in translational profile of PDE5A caused by TGFβ,"ENSG00000138735, Control vs. TGFβ",B (B = <−1.5 to −2.5)
same,Log2 TE FGD4,"ENSG00000139132, 5 replicates",−1.142
same,Log2 TE SLC38A4,"ENSG00000139209, 5 replicates",−1.142
same,Log2 TE GAS2L3,"ENSG00000139354, 5 replicates",−2.342
same,change in translational profile of GAS2L3 caused by TGFβ,"ENSG00000139354, Control vs. TGFβ",A (A = <−2.5)
same,Log2 TE TDG,"ENSG00000139372, 5 replicates",1.025
same,Log2 TE DIAPH3,"ENSG00000139734, 5 replicates",1.659
same,change in translational profile of DIAPH3 caused by TGFβ,"ENSG00000139734, Control vs. TGFβ",E (E = <1.5 to 2.5)
same,Log2 TE RPS2,"ENSG00000140988, 5 replicates",1.607
same,change in translational profile of MYO19 caused by TGFβ,"ENSG00000141140, Control vs. TGFβ",D (D = <1.0 to 1.5)
same,Log2 TE CACNA1A,"ENSG00000141837, 5 replicates",−1.055
same,Log2 TE RPS11,"ENSG00000142534, 5 replicates",1.314
same,Log2 TE RPL13A,"ENSG00000142541, 5 replicates",1.797
same,change in translational profile of RPL13A caused by TGFβ,"ENSG00000142541, Control vs. TGFβ",E (E = <1.5 to 2.5)
same,Log2 TE RPL11,"ENSG00000142676, 5 replicates",1.396
same,change in translational profile of RPL11 caused by TGFβ,"ENSG00000142676, Control vs. TGFβ",E (E = <1.5 to 2.5)

# Reference: patent US9993494B2, “Compositions and methods for treating fibrotic disease” (eFFECTOR Therapeutics, Inc., priority 2014, dated 2018)
